# Experimental data published in patent US8431528B2, “Antibacterial Lactobacillus GG peptides and methods of use” (priority 2008, dated 2013).
# Like-named read-outs stand apart in the source and are kept apart here. Ends that are not written are not given here.
# Assays:
# [1] = tested on: methicillin-resistant Staphylococcus aureus (MRSA); type: cell-based; conditions: MRSA growth (FIG. 11)
# From the text: LGG CM (19.7×10^12 CFU/ML) as positive control.
# E. coli EAEC 042 = type: cell-based; conditions: EAEC 042, 3 h
# Method: FIGS. 6A-6B show: EAEC 042 growth time-course (FIG. 6A). Ten microliters of E. coli (2.16×10^14 CFU/mL) were added in 1 mL LB broth and incubated in 37° C., shaking at 225 rpm, measuring A600 every 30 minutes. […] Ten microliters of EAEC 042 (7.7×10^12CFU/mL) were added to 1 mL LB broth mixed, and 100 mL of each peptide solution dissolved in MRS was added to the mixture. MRS alone (100 mL) and LGG CM (100 mL) (initial concentration 19.7×10^12CFU/mL) were used as negative and positive controls, respectively. The mixture was cultured for 3 hours and the A600 measured at the end of incubation. Also shown is the mean percentage inhibition ±SD. N=3 for all synthetic peptides tested. N=7 for LGG CM.
# The assay was performed as described (12), with minor modifications. Briefly, 10 mL E. coli EAEC 042 (7.7×10^14CFU/mL) was added to 1.0 mL LB Broth, mixed, and 100 mL of each LGG-derived synthetic peptide solution dissolved in MRS (for peptide final concentration see FIG. 6B) was added to the mixture. MRS alone (100 mL) and LGG CM 100 mL (LGG concentration: 19.7×10^12 CFU/mL) were used as negative and positive controls, respectively. The mixture was cultured for 3 hours with shaking at 225 rpm, 37° C., measuring A600 at the end.
# Salmonella typhi = experiment: Colony-count relative inhibition of Salmonella growth by peptide NPSRQERR; type: cell-based; conditions: S. typhi 38×10^6 CFU/mL; 3 hours, then overnight colony count
# Staphylococcus aureus = experiment: Colony-count relative inhibition of Staphylococcus growth by peptide NPSRQERR; type: cell-based
# [2] = tested on: Kanamycine-resistant E. coli SM10_pir; conditions: Kanamycine-resistant E. coli 2.6×10^13 CFU/ML, 3 hours, A600
# Method: SM10_pir (2.6×10^13) 10 ml+100 ml peptide (in LB)+900 ml LB, mixed, incubated at 37° C., 225 rpm for 3 hours, at the end, measure A600 and calculation the inhibition rate. […] LGG CM (9.7×10^12 CFU/ML) as positive control.
# (§1) SM 10_pir (2.6×10^13CFU) or TOPO10 (8.76×10^13) 10 μl, peptides solution 100 μl and (peptides dissolved in LB broth) were added into 900 ul LB broth, mixed, incubated at 37° C., for 3 hours with shaking at 225 rpm, measure the A600 at the end. Relative inhibition activity was calculated according to the following formula (1−A600 of sample group/A600 of control group)×100%.
# [3] = tested on: Tetracycline-resistant E. coli TOPO10; conditions: Tetracycline-resistant E. coli 8.7×10^13 CFU/ML, 3 hours, A600
# Method: TOPO10 (8.76×10^13) 10 ml+100 ml peptide (in LB)+900 ml LB, mixed, incubated at 37° C., 225 rpm for 3 hours, at the end, measure A600 and calculation the inhibition rate. […] LGG CM (9.7×10^12 CFU/ML) as positive control.
# as §1
substance,measurement,setting,value
NPSRQEFF (peptide sequence SEQ ID NO 1 where residues 7 and 8 are both replaced with Phe for a zero net charge) [variant of NPSRQERR with net positive charge decreased from 2 to 0],inhibition activity lost relative to NPSRQERR,[1]; net positive charge decreased from 2 to 0,12%
NPSRQERR [NPSRQERR],E. coli growth inhibition,E. coli EAEC 042,81.4%
same,peptide concentration at which 100% inhibition was reached,Salmonella typhi,8 mmol/L
same,peptide concentration at which 100% inhibition was reached,"Staphylococcus aureus; S. aureus 44×10^6 CFU/mL, 3 hours, then overnight colony count",64 mmol/L
same,effect on S. aureus,Staphylococcus aureus; compared with E. coli EAEC 042,less pronounced but dose dependent
same,inhibition rate,[2]; peptide 2.76 mM,43.75%
same,inhibition rate,[3]; peptide 2.76 mM,69.08%
NPSRQQRR (antibacterial peptide isolated from Lactobacillus GG) [variant of NPSRQERR with net positive charge increased from 2 to 3],inhibition activity increased relative to NPSRQERR,[1]; net positive charge increased from 2 to 3,16.5%
PDENK [PDENK],E. coli growth inhibition,E. coli EAEC 042,68.7%
same,inhibition rate,[2]; peptide 3.31 mM,68.54%
same,inhibition rate,[3]; peptide 3.31 mM,81.4%
VHTAPK [VHTAPK],E. coli growth inhibition,E. coli EAEC 042,30%
same,inhibition rate,[2]; peptide 3.25 mM,29.45%
same,inhibition rate,[3]; peptide 3.25 mM,48.53%
